Results on eight molecules are retold here after patent US7524964B2, “Tetrahydrothiopyrano pyrazole cannabinoid modulators” (Janssen Pharmaceutica NV, priority 2005, dated 2009).

In general, inhibition refers to the share of the control response that was lost under treatment. Usually EC50 stands for the concentration at which the effect is half-maximal. High values mean weaker potency, low ones greater potency. Usually IC50 stands for the concentration needed to halve the response being measured. A lower IC50 goes with greater potency in that assay.

In experiment [1] the target is T1, human CB1 receptor (Homo sapiens, UniProt P21554). Description: Binding assay, cannabinoid CB1 receptor ([3H]-CP-55,940 displacement). The arrangement: expressed in transfected cells; host or cells: SK-N-MC cells, pcDNA3 CB-1 (human), semi-purified membranes. The note with it: for inhibition at 1 µM: test concentration 1 μM (superscript b). In a few lines:
(§1)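 Membranes from SK-N-MC cells stably expressing human CB-1 or CB-2 were incubated 90 min at 30° C with 0.2 nM [3H]-CP-55,940 in pH 7.5 Tris buffer with fatty-acid-free BSA; 10 uM WIN 55,212 defined non-specific binding. Filter-bound counts gave IC50 by linear regression, or percent inhibition at 0.2, 1 or 10 μM.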

In a further experiment the target is T2, human CB-2 receptor (Homo sapiens, UniProt P34972).
T2 construct: expressed in transfected cells; host or cells: SK-N-MC cells, pcDNA3 CB-2 (human), semi-purified membranes
As to the kind of experiment: Binding assay, cannabinoid CB2 receptor ([3H]-CP-55,940 displacement). The note with it: for inhibition at 1 µM: test concentration 1 μM (superscript b), read-out: CB2 binding percent inhibition. In a few lines: as §1

The target of experiment [2] is T1, human CB1 receptor. As to the kind of experiment: Functional cell-based assay, CB1 receptor mediated change in CRE β-gal expression (adenylate cyclase activity). The arrangement: expressed in transfected cells; host or cells: SK-NC cells [sic], pcDNA3-CRE β-gal and pcDNA3 CB-1 (human). The note with it: for inhibition at 1 µM: test concentration 1 μM, where an EC50 was not obtained, read-out: CB1 functional percent inhibition. The text has this:
Functional Cell-Based Assay for CB1 or CB2 Agonist and Inverse Agonist Effects on Intra-Cellular Adenylate Cyclase Activity
The CB1 and CB2 receptors are G-protein coupled receptors (GPCR), which influence cell function via the Gi-protein. These receptors modulate the activity of intracellular adenylate cyclase, which in turn produces the intracellular signal messenger cyclic-AMP (cAMP).
At baseline, or during non-ligand bound conditions, these receptors are constitutively active and tonically suppress adenylate cyclase activity. The binding of an agonist causes further receptor activation and produces additional suppression of adenylate cyclase activity. The binding of an inverse agonist inhibits the constitutive activity of the receptors and results in an increase in adenylate cyclase activity.
By monitoring intracellular adenylate cyclase activity, the ability of compounds to act as agonists or inverse agonists can be determined.
Test compounds were evaluated in SK-NC cells which, using standard transfection procedures, were stably transfected with human cDNA for pcDNA3-CRE β-gal and pcDNA3 CB-1 (human) or pcDNA3 CB-2 (human). By expressing CRE β-gal, the cells produced β-galactosidase in response to CRE promoter activation by cAMP. Cells expressing CRE β-gal and either the human CB1 or CB2 receptor will produce less β-galactosidase when treated with a CB1/CB2 agonist and will produce more β-galactosidase when treated with a CB1/CB2 inverse agonist.
The cells were grown in 96-well plates under standard cell culture conditions at 37° C. in a 5% CO2 atmosphere. After 3 days, the media was removed and a test compound in media (wherein the media was supplemented with 2 mM L-glutamine, […] sodium pyruvate, 0.1% low fatty acid FBS (fetal bovine serum) and antibiotics) was added to the cell. The plates were incubated for 30 minutes at 37° C. and the plate cells were then treated with forskolin over a 4-6 hour period, then washed and lysed. The β-galactosidase activity was quantitated using commercially available kit reagents (Promega Corp. Madison, Wis.) and a Vmax Plate Reader (Molecular Devices, Inc).
For cells expressing CRE β-gal and the CB1 receptor, CB1 agonists reduced β-galactosidase activity in a dose-dependent manner and CB1 inverse agonists increased β-galactosidase activity in a dose-dependent manner.
The change in β-galactosidase activity was determined by setting a vehicle treated cell's activity value at 100% and expressing the β-galactosidase activity measured in a corresponding compound treated cell as a percent of the vehicle treated cell activity.
The EC50 and IC50 values for compounds tested were calculated by linear regression and were obtained from studies in which varying compound concentrations were used.
The EC50 values for compounds tested were calculated by linear regression and were obtained from studies in which varying compound concentrations were used. Where an EC50 was not obtained, test results are provided as percent inhibition at a test concentration of 1 μM. ^aTest value in IC50; indicates agonist activity.

The mark [3] stands for this setting: read-out: CB1 binding percent inhibition.

Several values for one entry are separate records, joined by “and”; a condition that tells them apart may be missing. Equal entries are not always repeated.

T2 sequence (P34972 whole entry): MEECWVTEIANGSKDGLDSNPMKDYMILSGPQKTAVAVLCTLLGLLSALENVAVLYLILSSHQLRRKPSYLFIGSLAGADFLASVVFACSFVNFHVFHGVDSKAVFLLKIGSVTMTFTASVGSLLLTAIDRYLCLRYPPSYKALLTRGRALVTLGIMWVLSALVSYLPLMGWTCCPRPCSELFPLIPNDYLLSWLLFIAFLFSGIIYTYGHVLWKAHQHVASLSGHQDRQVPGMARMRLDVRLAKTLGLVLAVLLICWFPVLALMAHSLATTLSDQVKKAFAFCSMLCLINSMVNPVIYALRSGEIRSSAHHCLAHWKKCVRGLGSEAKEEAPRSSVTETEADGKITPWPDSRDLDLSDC
T1 sequence (P21554 whole entry): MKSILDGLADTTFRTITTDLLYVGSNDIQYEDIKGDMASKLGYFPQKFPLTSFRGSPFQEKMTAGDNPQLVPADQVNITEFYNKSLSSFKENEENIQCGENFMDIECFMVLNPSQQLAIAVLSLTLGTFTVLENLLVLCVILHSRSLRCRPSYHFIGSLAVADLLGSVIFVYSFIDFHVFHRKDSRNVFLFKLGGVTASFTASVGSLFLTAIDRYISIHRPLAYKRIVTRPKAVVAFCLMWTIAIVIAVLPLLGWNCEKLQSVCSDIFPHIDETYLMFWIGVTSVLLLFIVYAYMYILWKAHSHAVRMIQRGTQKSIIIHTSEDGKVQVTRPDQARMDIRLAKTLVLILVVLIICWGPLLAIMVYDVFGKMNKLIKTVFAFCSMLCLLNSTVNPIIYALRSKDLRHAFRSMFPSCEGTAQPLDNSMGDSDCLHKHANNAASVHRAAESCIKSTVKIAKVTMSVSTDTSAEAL

For `C[C@@H](NC(=O)c1nn(Cc2ccccc2)c2c1CS(=O)(=O)CC2)c1ccccc1` [Cpd 13, 1-benzyl-5,5-dioxo-4,5,6,7-tetrahydro-1H-5λ^6-thiopyrano[4,3-c]pyrazole-3-carboxylic acid [(1R)-1-phenyl-ethyl]-amide], the inhibition at 1 µM is 38% on human CB1 receptor [1] (setting [3]) and 55% on human CB-2 receptor. This molecule had an EC50 on human CB1 receptor [2] of 7880 nM.
On to `C[C@@H](NC(=O)/C=C/c1nn(Cc2ccccc2)c2c1CSCC2)c1ccccc1` [Cpd 33, (2E)-3-(1-benzyl-1,4,6,7-tetrahydro-thiopyrano[4,3-c]pyrazol-3-yl)-N-[(1R)-1-phenyl-ethyl]-acrylamide], for which the inhibition at 1 µM at human CB1 receptor [1] (setting [3]) was 35%; at human CB1 receptor [2] it was 24%. Also, the inhibition at 10 µM on human CB1 receptor [1] (test concentration 10 μM (superscript c), read-out: CB1 binding percent inhibition) is 9%. Moreover, the IC50 at human CB-2 receptor was found to be 6800 nM.
Regarding `C[C@H](NS(=O)(=O)/C=C/c1nn(Cc2ccccc2)c2c1CSCC2)c1ccccc1` [Cpd 3, (E)-2-(1-benzyl-1,4,6,7-tetrahydro-thiopyrano[4-3-c]pyrazol-3-yl)-ethenesulfonic acid [(1S)-1-phenyl-ethyl]-amide], the values for the inhibition at 1 µM on human CB1 receptor [1] (setting [3]), on human CB-2 receptor and on human CB1 receptor [2] were 23%, 74% and 17%, respectively.
For `CC12CCC(C1)C(C)(C)C2NC(=O)c1nn(Cc2ccccc2)c2c1CSCC2` (stereo not drawn) [Cpd 19, 1-benzyl-1,4,6,7-tetrahydro-thiopyrano[4,3-c]pyrazole-3-carboxylic acid (1,3,3-trimethyl-bicyclo[2.2.1]hept-2-yl)-amide], the IC50 on human CB1 receptor [1] was 5 nM; at human CB-2 receptor, 0.7 nM; at human CB1 receptor [2], 30 nM.
In the same order, the values of `C[C@@H](NC(=O)c1nn(Cc2ccccc2)c2c1CSCC2)c1ccccc1` [Cpd 1, 1-benzyl-1,4,6,7-tetrahydro-thiopyrano[4,3-c]pyrazole-3-carboxylic acid [(1R)-1-phenyl-ethyl]-amide] are 160 nM, 62 nM and 70 nM.
On to `CC12CCC(C1)C(C)(C)C2NC(=O)c1nn(Cc2ccccc2)c2c1C[S+]([O-])CC2` (stereo not drawn) [Cpd 21, 1-benzyl-5-oxo-4,5,6,7-tetrahydro-1H-5λ^4-thiopyrano[4,3-c]pyrazole-3-carboxylic acid (1,3,3-trimethyl-bicyclo[2.2.1]hept-2-yl)-amide], for which the inhibition at 1 µM on human CB1 receptor [1] (setting [3]) came out at 53%. The figures for the half-maximal inhibitory concentration (IC50) at human CB-2 receptor and at human CB1 receptor [2] were 56 nM and 6300 nM, respectively.
On to `CC(NS(=O)(=O)/C=C/c1nn(Cc2ccccc2)c2c1C[S+]([O-])CC2)C1CCCCC1` (stereo not drawn) [Cpd 25, (E)-2-(1-benzyl-5-oxo-4,5,6,7-tetrahydro-1H-5λ^4-thiopyrano[4,3-c]pyrazol-3-yl)-ethenesulfonic acid (1-cyclohexyl-ethyl)amide], for which, on human CB1 receptor [1] (test concentration 10 μM (superscript c), 10 µM), the “CB1 binding percent inhibition” value is 0% and 6%. In addition, the inhibition at 1 µM on human CB1 receptor [2] turned out to be 1%.
Regarding `CC12CCC(C1)C(C)(C)C2NC(=O)c1nn(Cc2ccccc2)c2c1CS(=O)(=O)CC2` (stereo not drawn) [Cpd 20, 1-benzyl-5,5-dioxo-4,5,6,7-tetrahydro-1H-5λ^6-thiopyrano[4,3-c]pyrazole-3-carboxylic acid (1,3,3-trimethyl-bicyclo[2.2.1]hept-2-yl)-amide], the figures for the IC50 at human CB1 receptor [1], on human CB-2 receptor and at human CB1 receptor [2] were 22 nM, 5 nM and 60 nM, respectively.
